Test results: patent US20260021180A1, “IMPROVING ADOPTIVE CELL TRANSFER THERAPY (ACT) TREATMENT” (YISSUM RESEARCH DEVELOPMENT COMPANY OF THE HEBREW …, priority 2022, published 2026)

Columns and labels:
HEK-293T cells [1] = assay: Extracellular acidification rate (ECAR), Seahorse analysis, HEK-293T cells; assay type: cell-based, human; details: trehalose 5 mM, oligomycin 1 μM, 2DG 50 mM, added in sequence
Protocol: FIG. 3: Treh and Tret1 co-expression allows utilization of Trehalose as a carbon source for glycolysis. Line graph of the Extra Cellular Acidification Rate (ECAR) of Tret1-3×Flag and Treh-GFP expressing (transduced with retrovirus expressing both Tret1-3×Flag and Treh-GFP) or wild-type HEK-293T cells. Trehalose was added at 5 mM, Oligomycin at 1 μM and 2DG (2-Deoxy-D-glucose) at 50 mM.
To directly examine this notion, whether trehalose restores glycolysis of Treh/Tret1 expressing cells was tested. For this purpose, the extracellular acidification rate (ECAR), as a proxy for lactate secretion, of Treh/Tret1 or wild-type cells, was analyzed using Seahorse analysis.

HEK-293T cells [2] = assay: Cell survival by PI staining (flow cytometry) of transfected HEK-293T cells in glucose-free, trehalose-supplemented medium; assay type: cell-based, human; details: four days
Protocol: (§1) FIGS. 2A-2C: Treh and Tret1 co-expression rescues the proliferation and survival of HEK-293T cells in glucose-free, trehalose-supplemented medium. (2A) Histograms of cell survival as measured by PI staining using a flow cytometer. HEK-293T cells were transfected with either Tret1-3×Flag expression plasmid, HA-Treh expression plasmid or both together. 48 h post-transfection medium was replaced to a glucose-free medium supplemented with the indicated trehalose concentrations. Four days later flow analysis was performed. (2B) Histograms of cell survival as measured by PI staining using a flow cytometer. HEK-293T cells were co-transfected with Tret1-3×Flag and HA-Treh expression plasmids or pCDNA3.1 (empty vector). 48 h post-transfection medium was replaced with glucose-free medium supplemented with the 25 mM trehalose. Four days later, flow analysis was performed. (2C) Bar graph of MMT analysis. HEK-293T cells were transfected with pCDNA3.1 (empty vector), Tret1-3×Flag or HA-Treh expression plasmids or both plasmids together. 48 h post-transfection medium was replaced with glucose-free medium supplemented with 25 mM trehalose. Ten days later, cell survival was measured by MTT assay.
(§2) To test the function of delivered Treh and Tret1 genes in HEK-293T cells the survival of Treh/Tret1 expressing cells was tested in the absence or presence of various trehalose concentrations in glucose-free media.

human CD8 T cells = assay: Metabolic isotope tracing (13C6-glucose vs 13C12-trehalose, LC-MS) in DmTret1-1B/Treh-expressing human CD8 T cells; assay type: cell-based; details: 24 h with 13C12-Trehalose vs 13C6-Glucose; glycolysis, pentose phosphate pathway, TCA cycle
Protocol: FIGS. 6A-6I: Human primary T cells utilize trehalose for glycolysis, proliferation and cytokine production. Human primary PBMCs were activated with anti-CD3 and anti-CD28 for 48 hours. Then, they were retrovirally transduced with Treh1 and a trehalose transporter. (6A) FACS analysis of the T cells transduced with Treh1-GFP and Dm-Tret1-1B-mKate2. CD8 T cells were gated, and expression was analyzed 48 h after transduction. (6B) FACS analysis of the T cells transduced with Treh1-GFP and Dm-Tret1-1A-mKate2. CD8 T cells were gated, and expression was analyzed 48 h after transduction. (6C) Normalized ECAR measured by Seahorse analysis following trehalose or glucose supplementation and oligomycin and 2DG injections of Treh1 or DmTret1-1B/Treh1-expressing CD8 T cells. (6D-G): DmTret1-1B/Treh-expressing human CD8 T cells were incubated for 24 h with 13C6-Glucose or 13C12-Trehalose. Then cell extracts and media were subjected to metabolic analysis using LC-MS. (6D) Levels of lactate isotopologues in the medium of the cells. (6E-G) Isotopologue distributions in the cell fraction of detected key metabolites generated during (6E) glycolysis, (6F) the TCA cycle and (6G) the phosphate pentose pathway. […] Cells were counted every 3-4 days. […] Media was collected and INF-γ concentration was measured by ELISA at optical density of 605 (O.D.605). […]

HEK-293T cells [3] = assay: MTT assay of transfected HEK-293T cells in glucose-free medium supplemented with trehalose; assay type: cell-based, human
Protocol: as §1, §2

## CC[C@H]1/C=C/C=C/C[C@@H](C)[C@H](O)[C@@](C)(O)C(=O)[C@@H](C)[C@H](O)[C@@H](C)C(=O)[C@@H](C)[C@H](O)[C@@H](C)/C=C/C(=O)O[C@@H]2[C@H](C)[C@H](CC1)O[C@]1(CC[C@H](C)[C@H](C[C@@H](C)O)O1)[C@H]2C [oligomycin, reference compound]
HEK-293T cells [1]
  ECAR of HEK293T cells expressing Treh/Tret1 following addition: did not lead to an elevation in ECAR

## O=CC[C@@H](O)[C@H](O)[C@H](O)CO [2-Deoxy-D-glucose, reference compound]
HEK-293T cells [1]
  ECAR of HEK293T cells expressing Treh/Tret1 following addition: significantly decreased

## OC[C@H]1O[C@H](O[C@H]2O[C@H](CO)[C@@H](O)[C@H](O)[C@H]2O)[C@H](O)[C@@H](O)[C@@H]1O [trehalose]
HEK-293T cells [2]; HEK-293T co-transfected with Tret1-3×Flag and HA-Treh, glucose-free medium + 25 mM trehalose
  rescue of survival of Treh/Tret1 expressing cells: could rescue the survival
HEK-293T cells [2]; HEK-293T with pCDNA3.1 empty vector, glucose-free medium + 25 mM trehalose
  rescue of survival of empty vector transfected cells: not
HEK-293T cells [2]; HEK-293T, glucose-free media, 2 mM trehalose, PI staining
  survival of Treh/Tret1 expressing cells: substantial rescue
HEK-293T cells [2]; HEK-293T, glucose-free media, various trehalose concentrations
  survival of Treh/Tret1 expressing cells versus trehalose concentration: increased survival of the cells in correlation with the trehalose concentration
HEK-293T cells [1]
  ECAR of HEK293T cells expressing Treh/Tret1 following addition: significant increase
Human CD8 T cells
  metabolic pathways into which the sugar integrates: integrates into the same metabolic pathways as glucose

B1: Tret1: Drosophila melanogaster trehalose transporter 1, long isoform A, 857 amino acids (SEQ ID NO: 5), expressed in human cells (protein)
chain: MSGRDNRGAGGGGGGHQPLSNAMGKLKEKLTRVGDELGYHRVESNLSTSNTATSLDTILPEDPFLFPQVSPQRHPQNTVRTQRLLEDEPPLSFRPLLEDDDINEPPTQQQQRTPLRASGSLELTPLPPPPTSLEIREHRDRQQRGAQGDELQRSKQSLKGSRVSFERRDTGNSNTNSNKAAESSDEDSFEEKRTGFQQQKATSVDHKGILKDLKHILANDNRRQFQAKKHVSLDVKGTRFLQDLLKESSSEEEFHKTRREFQGRKHQSLDPRVTFKLDKVLQGSSTDSDEEGEDAEHKRLIHRPKDITKPVIIDLKDLESESDEDFLTSRQHFQQQRSISTDSRKSRRLYEMDEMDNKRGENIRHAVPFVRQITEDGKPKLEVYRPTTNPIYIWTQVLAALSVSLGSLVVGFVSAYTSPALVSMTDRNITSFEVTQDAGSWVGGIMPLAGLAGGIAGGPLIEYLGRRNTILATAVPFIVSSLLIACAVNVAMVLCGRFLAGFCVGIASLSLPVYLGETVQPEVRGTLGLLPTAFGNIGILLCFVAGSFMNWSMLAFLGAALPVPFLILMFLIPETPRWFVGRGLEERARKALKWLRGKEADVEPELKGLMRSQADADRQASRNTMLELLKLNNLKPLSISLGLMFFQQFSGINAVIFYTVQIFKDAGSTIDGNLCTIIVGIVNFLATFIGIVLIDRAGRKILLYVSDIAMVLTLFVLGGFFYCKTYGPDVSHLGWLPLTCFVIYILGFSLGFGPIPWLMMGEILPAKIRGSAASVATAFNWFCTFVVTKTFQDLTVAMGAHGAFWLFGAICFVGLFFVIIYVPETQGKTLEDIERKMMGRVRRMSSVANIKPLSFNM
modifications: 3xFlag tag; Drosophila melanogaster
HEK-293T cells [3]
  survival of mammalian cells with trehalose as the only sugar source (summary statement): greatly improved survival
